Data: patent US20250326752A1, “PIPERIDINYL-METHYL-PURINE AMINE SALTS, CRYSTALLINE FORMS, AND THEIR USE IN TREATING MEDICAL DISEASES AND CONDITIONS” (K36 Therapeutics, Inc., priority 2022, published 2025)
Where a name gives a salt, the structure may show the parent alone.

What was measured:
[1] = water solubility of the crystalline form in phosphate buffer; assay type: physicochemical; conditions: for solubility: pH 6.8 (phosphate buffer; 50 mM where stated)
[2] = hygroscopicity by dynamic vapor sorption; assay type: physicochemical; conditions: transitioned from 0% to 90% relative humidity
[3] = pH 7.0 (phosphate buffer), 37° C., after 30 minutes
[4] = aqueous buffer, read-out: water solubility of (S)-1-((R)-3-amino-1-(4-((6-amino-9H-purin-9-yl)methyl)-6-(2,5-difluoro-4-methoxyphenyl)pyridin-3-yl)piperidin-3-yl)-2,2-difluoroethan-1-ol

Compound	water solubility of (S)-1-((R)-3-amino-1-(4-((6-amino-9H-purin-9-yl)methyl)-6-(2,5-difluoro-4-methoxyphenyl)pyridin-3-yl)piperidin-3-yl)-2,2-difluoroethan-1-ol [1, 3] [µg/mL]	increase in weight (hygroscopicity by dynamic vapor sorption) [2] [%]	further results
COc1cc(F)c(-c2cc(Cn3cnc4c(N)ncnc43)c(N3CCC[C@](N)([C@H](O)C(F)F)C3)cn2)cc1F [Example 4, (S)-1-((R)-3-amino-1-(4-((6-amino-9H-purin-9-yl)methyl)-6-(2,5-difluoro-4-methoxyphenyl)pyridin-3-yl)piperidin-3-yl)-2,2-difluoroethan-1-ol Hydrochloric Acid Salt]	360	–	–
COc1cc(F)c(-c2cc(Cn3cnc4c(N)ncnc43)c(N3CCC[C@](N)([C@H](O)C(F)F)C3)cn2)cc1F [Example 8, (S)-1-((R)-3-amino-1-(4-((6-amino-9H-purin-9-yl)methyl)-6-(2,5-difluoro-4-methoxyphenyl)pyridin-3-yl)piperidin-3-yl)-2,2-difluoroethan-1-ol Succinic Acid Salt]	1670	–	–
COc1cc(F)c(-c2cc(Cn3cnc4c(N)ncnc43)c(N3CCC[C@](N)([C@H](O)C(F)F)C3)cn2)cc1F [Example 11, Crystalline L-Tartaric Acid Salt of (S)-1-((R)-3-amino-1-(4-((6-amino-9H-purin-9-yl)methyl)-6-(2,5-difluoro-4-methoxyphenyl)pyridin-3-yl)piperidin-3-yl)-2,2-difluoroethan-1-ol]	540	–	–
COc1cc(F)c(-c2cc(Cn3cnc4c(N)ncnc43)c(N3CCC[C@](N)([C@H](O)C(F)F)C3)cn2)cc1F.Cl [Example 1, (S)-1-((R)-3-amino-1-(4-((6-amino-9H-purin-9-yl)methyl)-6-(2,5-difluoro-4-methoxyphenyl)pyridin-3-yl)piperidin-3-yl)-2,2-difluoroethan-1-ol Hydrochloric Acid Salt]	–	16	solubility [1, 4]: 220 µg/mL
COc1cc(F)c(-c2cc(Cn3cnc4c(N)ncnc43)c(N3CCC[C@](N)([C@H](O)C(F)F)C3)cn2)cc1F [Example 6, (S)-1-((R)-3-amino-1-(4-((6-amino-9H-purin-9-yl)methyl)-6-(2,5-difluoro-4-methoxyphenyl)pyridin-3-yl)piperidin-3-yl)-2,2-difluoroethan-1-ol Sulfuric Acid Salt]	780	–	–
COc1cc(F)c(-c2cc(Cn3cnc4c(N)ncnc43)c(N3CCC[C@](N)([C@H](O)C(F)F)C3)cn2)cc1F [Example 2, (S)-1-((R)-3-amino-1-(4-((6-amino-9H-purin-9-yl)methyl)-6-(2,5-difluoro-4-methoxyphenyl)pyridin-3-yl)piperidin-3-yl)-2,2-difluoroethan-1-ol Hydrochloric Acid Salt]	–	1.8	solubility [1, 4]: 210 µg/mL
COc1cc(F)c(-c2cc(Cn3cnc4c(N)ncnc43)c(N3CCC[C@](N)([C@H](O)C(F)F)C3)cn2)cc1F [Example 5, (S)-1-((R)-3-amino-1-(4-((6-amino-9H-purin-9-yl)methyl)-6-(2,5-difluoro-4-methoxyphenyl)pyridin-3-yl)piperidin-3-yl)-2,2-difluoroethan-1-ol Sulfuric Acid Salt]	–	6.0	–
COc1cc(F)c(-c2cc(Cn3cnc4c(N)ncnc43)c(N3CCC[C@](N)([C@H](O)C(F)F)C3)cn2)cc1F [Example 10, Crystalline L-Malic Acid Salt of (S)-1-((R)-3-amino-1-(4-((6-amino-9H-purin-9-yl)methyl)-6-(2,5-difluoro-4-methoxyphenyl)pyridin-3-yl)piperidin-3-yl)-2,2-difluoroethan-1-ol]	1530	–	–
COc1cc(F)c(-c2cc(Cn3cnc4c(N)ncnc43)c(N3CCC[C@](N)([C@H](O)C(F)F)C3)cn2)cc1F.Cl [Example 3, (S)-1-((R)-3-amino-1-(4-((6-amino-9H-purin-9-yl)methyl)-6-(2,5-difluoro-4-methoxyphenyl)pyridin-3-yl)piperidin-3-yl)-2,2-difluoroethan-1-ol Hydrochloric Acid Salt]	–	–	solubility at 30 min ([1]; aqueous buffer, pH 7.0 (phosphate buffer), 37° C., after 30 minutes, read-out: water solubility of (S)-1-((R)-3-amino-1-(4-((6-amino-9H-purin-9-yl)methyl)-6-(2,5-difluoro-4-methoxyphenyl)pyridin-3-yl)piperidin-3-yl)-2,2-difluoroethan-1-ol): 1170 µg/mL
